# Laboratory results published in ChEMBL document CHEMBL1201862, “PubChem BioAssay data set” (2004).
# The source made the active and inactive calls.
# What was measured:
# [1] = molecular target: NAD-dependent protein deacylase sirtuin-5, mitochondrial (Homo sapiens, UniProt Q9NXA8); assay: SIRT5 deacylase inhibitors, dose response, biochemical, fluorescence imaging, cherry-pick, set 6 (AID 720597)
# [2] = Late-stage results from the probe development effort to identify antagonists of arginine vasopressin receptor 1a (AVPR1a): fluorescence-based cell-based dose response OXTR inhibition counterscreen assay.; type: functional
# [3] = molecular target: Vasopressin V2 receptor (Homo sapiens, UniProt P30518); assay: Late-stage results from the probe development effort to identify antagonists of arginine vasopressin receptor 1a (AVPR1a): fluorescence-based cell-based dose response AVPR2 inhibition counterscreen assay.; type: functional
# Vasopressin V2 receptor, sequence (P30518 whole entry): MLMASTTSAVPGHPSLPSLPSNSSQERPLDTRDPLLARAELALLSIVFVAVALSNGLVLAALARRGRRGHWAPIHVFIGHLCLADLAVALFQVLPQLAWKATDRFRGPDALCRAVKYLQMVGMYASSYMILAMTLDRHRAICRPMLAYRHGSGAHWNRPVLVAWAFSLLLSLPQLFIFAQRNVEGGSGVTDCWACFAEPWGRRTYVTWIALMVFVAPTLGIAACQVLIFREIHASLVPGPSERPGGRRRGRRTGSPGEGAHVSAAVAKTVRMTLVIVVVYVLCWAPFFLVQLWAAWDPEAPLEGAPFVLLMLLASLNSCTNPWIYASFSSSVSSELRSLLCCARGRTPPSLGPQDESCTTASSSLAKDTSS
# [4] = molecular target: Vasopressin V1b receptor (Homo sapiens, UniProt P47901); assay: Late-stage results from the probe development effort to identify antagonists of arginine vasopressin receptor 1a (AVPR1a): fluorescence-based cell-based dose response AVPR1b inhibition counterscreen assay.; type: functional
# Vasopressin V1b receptor, sequence (P47901 whole entry): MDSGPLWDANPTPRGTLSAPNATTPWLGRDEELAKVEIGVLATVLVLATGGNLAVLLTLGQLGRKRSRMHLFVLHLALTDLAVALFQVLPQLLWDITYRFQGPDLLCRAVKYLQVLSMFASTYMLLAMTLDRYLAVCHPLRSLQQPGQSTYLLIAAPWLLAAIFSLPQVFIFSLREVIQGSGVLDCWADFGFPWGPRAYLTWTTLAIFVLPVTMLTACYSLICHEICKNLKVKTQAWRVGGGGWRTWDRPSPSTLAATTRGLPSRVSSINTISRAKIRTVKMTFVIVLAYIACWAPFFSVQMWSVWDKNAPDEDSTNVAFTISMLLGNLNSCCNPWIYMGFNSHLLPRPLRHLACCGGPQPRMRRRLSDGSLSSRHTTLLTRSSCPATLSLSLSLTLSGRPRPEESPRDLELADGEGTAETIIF
# [5] = Late-stage results from the probe development effort to identify antagonists of arginine vasopressin receptor 1a (AVPR1a): fluorescence-based cell-based dose response AVPR1a inhibition assay.; type: functional
# [6] = A375 melanoma cell cytotoxicity, dose response, counter-screen for MITF inhibitor project, CellTiter-Glo luminescence, dry powder, set 2 (AID 624489); type: functional, cell-based; conditions: A-375;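 further: actives are compounds lowering A375 viability meaning general cytotoxicity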
# [7] = A375 melanoma cell viability loss, dose response, counter-screen for MITF inhibitor project, CellTiter-Glo luminescence, dry powder, set 4 (AID 624364); type: functional, cell-based; conditions: A-375;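 further: A375 melanoma cells are MITF independent so this is a counter screen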
# [8] = Late stage assay provider results from the probe development effort to identify selective inhibitors of heat shock protein 90 (HSP90): Absorbance-based cell proliferation assay in MCF7 cells.; type: functional
# [9] = Late stage assay provider results from the probe development effort to identify selective inhibitors of heat shock protein 90 (HSP90): Absorbance-based cell proliferation assay in SKBR3 cells.; type: functional; conditions: SK-BR-3
# [10] = cells; type: functional, cell-based
# [11] = cells; type: functional, cell-based; remark: listed apart in the source
# [12] = HepG2 cell cytotoxicity, dose response, cytotoxicity control, ATP luminescence, cherry-pick, activator set 2 (AID 1053143); type: functional, cell-based
# [13] = cytotoxicity in OVCAR8 ovarian cancer cells, dose response, PAX8 project, cell-based, plate reader, dry powder samples (AID 743197); type: functional; conditions: OVCAR-8
# [14] = molecular target: Paired box protein Pax-8 (Homo sapiens, UniProt Q06710); assay: inhibitors of PAX8-driven TPO luciferase reporter, dose response, RMG-I cells, cherry-pick (AID 687027); type: functional, cell-based;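 further: luciferase reporter driven by Pax8 target thyroperoxidase promoter measured by SteadyGlo luminescence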
# Paired box protein Pax-8, sequence (Q06710 whole entry): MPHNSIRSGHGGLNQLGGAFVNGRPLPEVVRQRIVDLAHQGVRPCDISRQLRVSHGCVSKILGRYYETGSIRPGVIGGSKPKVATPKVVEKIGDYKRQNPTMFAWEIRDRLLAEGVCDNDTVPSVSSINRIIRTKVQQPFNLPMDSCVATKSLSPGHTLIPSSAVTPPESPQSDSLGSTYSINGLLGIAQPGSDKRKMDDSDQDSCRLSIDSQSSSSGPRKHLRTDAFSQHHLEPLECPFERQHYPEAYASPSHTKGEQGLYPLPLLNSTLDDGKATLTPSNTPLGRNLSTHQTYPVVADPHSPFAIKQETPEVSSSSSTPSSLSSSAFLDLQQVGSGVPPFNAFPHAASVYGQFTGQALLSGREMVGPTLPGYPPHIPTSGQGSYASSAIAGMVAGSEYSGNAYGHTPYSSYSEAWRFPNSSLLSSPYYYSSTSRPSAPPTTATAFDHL
# [15] = cells; conditions: A549
# [16] = cells; conditions: HEK293
# [17] = molecular target: CAAX prenyl protease 2 (Saccharomyces cerevisiae S288c, UniProt Q03530); type: biochemical
# CAAX prenyl protease 2, sequence (Q03530 whole entry): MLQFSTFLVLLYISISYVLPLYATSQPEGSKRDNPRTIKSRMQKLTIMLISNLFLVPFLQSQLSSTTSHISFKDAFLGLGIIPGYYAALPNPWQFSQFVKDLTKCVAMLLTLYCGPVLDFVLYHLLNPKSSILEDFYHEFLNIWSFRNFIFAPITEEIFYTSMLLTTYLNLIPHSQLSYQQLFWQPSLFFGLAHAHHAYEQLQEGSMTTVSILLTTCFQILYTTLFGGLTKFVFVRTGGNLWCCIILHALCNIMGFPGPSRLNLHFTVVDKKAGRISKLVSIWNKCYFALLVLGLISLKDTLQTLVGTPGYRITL
# [18] = HepG2 cell cytotoxicity, dose response, cytotoxicity control, ATP luminescence, cherry-pick, set 6 (AID 1053125); type: functional, cell-based
# [19] = Luminescence Cell-Based Dose Retest to Confirm Inhibitors of Cancer Stem Cells. [Related pubchem assays (depositor defined):AID2717, AID2721]; type: functional; conditions: Homo sapiens
# [20] = molecular target: T1, Oxysterols receptor LXR-beta (Homo sapiens, UniProt P55055); type: functional, cell-based;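 further: agonist activity at LXR measured by a cell-based luminescence readout across a dose range, run as a counterscreen for daf-12 agonists; HEK293 cells with Gal4-LXR fusion and GAL4-driven luciferase reporter; potency for activation of Gal4-LXR reporter so compounds are agonists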
# T1 sequence (P55055 whole entry): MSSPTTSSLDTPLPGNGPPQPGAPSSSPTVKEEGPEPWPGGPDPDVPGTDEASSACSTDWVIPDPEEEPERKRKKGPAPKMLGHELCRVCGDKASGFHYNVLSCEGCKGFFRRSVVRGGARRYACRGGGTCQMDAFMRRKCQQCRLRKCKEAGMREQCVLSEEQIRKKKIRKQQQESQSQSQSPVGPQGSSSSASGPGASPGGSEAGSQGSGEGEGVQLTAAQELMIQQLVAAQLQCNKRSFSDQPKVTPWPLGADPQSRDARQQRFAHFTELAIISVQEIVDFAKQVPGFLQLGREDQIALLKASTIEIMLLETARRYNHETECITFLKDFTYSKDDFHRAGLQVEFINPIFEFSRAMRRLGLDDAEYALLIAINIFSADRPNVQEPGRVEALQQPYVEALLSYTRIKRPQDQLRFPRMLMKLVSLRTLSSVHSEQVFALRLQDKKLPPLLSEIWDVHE
# [21] = miR-122 activators in hepatoma reporter cells, dose response, cell-based, Huh7 psiCHECK-miR122, Renilla luciferase, cherry-picked (AID 651956); type: functional;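 further: huh7 hepatoma cells stably carrying a psiCHECK-2 miR-122 sensor plasmid; renilla luciferase signal reporting endogenous miR-122 activity after 48 h compound exposure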
# [22] = HEK293T cytotoxicity, dose response, cytotoxicity control for miR-122 modulator project, cell-based, activator set, cherry-pick (AID 720690); type: functional;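 further: HEK293T human cells scored for general mammalian cytotoxicity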
# [23] = cytotoxicity in A549 cells, dose response, cytotoxicity control, cell-based, CellTiter-Glo luminescence, cherry-pick (AID 743484); type: functional
# [24] = molecular target: Metabotropic glutamate receptor 5 (Rattus norvegicus, UniProt P31424); assay: Identification of a glycine sulfonamide based non-MPEP site positive allosteric potentiator (PAM) of mGlu5 (calcium_assay).; type: functional
# Metabotropic glutamate receptor 5, sequence (P31424 whole entry): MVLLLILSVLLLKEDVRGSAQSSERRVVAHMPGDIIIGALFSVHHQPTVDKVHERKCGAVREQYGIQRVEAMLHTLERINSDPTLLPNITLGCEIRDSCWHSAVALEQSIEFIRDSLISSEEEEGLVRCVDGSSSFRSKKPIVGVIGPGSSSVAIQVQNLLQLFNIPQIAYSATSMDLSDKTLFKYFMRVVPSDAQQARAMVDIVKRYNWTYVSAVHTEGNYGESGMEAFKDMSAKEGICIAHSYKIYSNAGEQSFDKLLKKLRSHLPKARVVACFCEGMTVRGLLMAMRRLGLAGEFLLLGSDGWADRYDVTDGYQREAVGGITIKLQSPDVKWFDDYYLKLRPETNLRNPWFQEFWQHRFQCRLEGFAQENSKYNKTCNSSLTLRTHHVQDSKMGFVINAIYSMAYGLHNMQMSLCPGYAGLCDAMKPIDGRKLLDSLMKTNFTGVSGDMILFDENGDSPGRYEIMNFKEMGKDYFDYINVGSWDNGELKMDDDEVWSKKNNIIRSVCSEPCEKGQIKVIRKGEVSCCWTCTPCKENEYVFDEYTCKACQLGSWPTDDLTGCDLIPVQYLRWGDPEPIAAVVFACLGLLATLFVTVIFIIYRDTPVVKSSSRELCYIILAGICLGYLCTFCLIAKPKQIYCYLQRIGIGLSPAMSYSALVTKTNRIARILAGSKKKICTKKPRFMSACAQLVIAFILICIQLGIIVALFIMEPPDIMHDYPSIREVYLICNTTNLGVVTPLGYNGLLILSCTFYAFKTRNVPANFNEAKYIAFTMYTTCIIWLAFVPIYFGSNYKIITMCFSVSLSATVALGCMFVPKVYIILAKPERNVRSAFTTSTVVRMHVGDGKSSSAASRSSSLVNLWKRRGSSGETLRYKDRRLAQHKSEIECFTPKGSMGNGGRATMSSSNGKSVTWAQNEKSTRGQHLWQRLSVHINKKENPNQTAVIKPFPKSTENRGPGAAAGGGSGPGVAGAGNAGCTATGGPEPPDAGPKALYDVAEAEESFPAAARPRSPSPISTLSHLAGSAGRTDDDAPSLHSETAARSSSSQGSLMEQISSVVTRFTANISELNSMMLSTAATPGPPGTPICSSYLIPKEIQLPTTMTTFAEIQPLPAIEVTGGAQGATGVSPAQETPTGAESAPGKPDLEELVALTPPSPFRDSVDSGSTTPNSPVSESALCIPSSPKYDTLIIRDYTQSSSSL
# [25] = molecular target: Muscarinic acetylcholine receptor M5 (Homo sapiens, UniProt P08912); assay: M5 receptor positive allosteric modulators, dose response, cell-based, concentration-response curve (AID 651878); type: functional
# Muscarinic acetylcholine receptor M5, sequence (P08912 whole entry): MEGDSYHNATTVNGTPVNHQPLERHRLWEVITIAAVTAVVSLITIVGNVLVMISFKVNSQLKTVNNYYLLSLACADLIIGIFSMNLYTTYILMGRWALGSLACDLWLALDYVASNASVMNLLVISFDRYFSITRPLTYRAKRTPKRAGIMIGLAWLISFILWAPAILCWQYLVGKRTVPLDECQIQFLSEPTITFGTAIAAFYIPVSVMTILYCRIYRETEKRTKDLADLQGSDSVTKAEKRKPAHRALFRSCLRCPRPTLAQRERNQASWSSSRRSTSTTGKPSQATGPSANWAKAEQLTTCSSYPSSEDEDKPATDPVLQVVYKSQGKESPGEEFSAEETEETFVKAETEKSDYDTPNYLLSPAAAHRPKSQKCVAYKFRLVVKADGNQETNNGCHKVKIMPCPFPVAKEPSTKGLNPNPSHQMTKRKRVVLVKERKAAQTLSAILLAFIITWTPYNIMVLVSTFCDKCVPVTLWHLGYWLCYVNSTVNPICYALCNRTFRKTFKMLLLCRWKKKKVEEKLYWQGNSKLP
# [26] = molecular target: T2, Replicative DNA helicase DnaB (Mycobacterium tuberculosis, UniProt P9WMR3); assay: DnaB intein splicing inhibitors, dose response, biochemical, cell-free fluorescence (AID 449749); type: functional
# T2 sequence (P9WMR3 whole entry): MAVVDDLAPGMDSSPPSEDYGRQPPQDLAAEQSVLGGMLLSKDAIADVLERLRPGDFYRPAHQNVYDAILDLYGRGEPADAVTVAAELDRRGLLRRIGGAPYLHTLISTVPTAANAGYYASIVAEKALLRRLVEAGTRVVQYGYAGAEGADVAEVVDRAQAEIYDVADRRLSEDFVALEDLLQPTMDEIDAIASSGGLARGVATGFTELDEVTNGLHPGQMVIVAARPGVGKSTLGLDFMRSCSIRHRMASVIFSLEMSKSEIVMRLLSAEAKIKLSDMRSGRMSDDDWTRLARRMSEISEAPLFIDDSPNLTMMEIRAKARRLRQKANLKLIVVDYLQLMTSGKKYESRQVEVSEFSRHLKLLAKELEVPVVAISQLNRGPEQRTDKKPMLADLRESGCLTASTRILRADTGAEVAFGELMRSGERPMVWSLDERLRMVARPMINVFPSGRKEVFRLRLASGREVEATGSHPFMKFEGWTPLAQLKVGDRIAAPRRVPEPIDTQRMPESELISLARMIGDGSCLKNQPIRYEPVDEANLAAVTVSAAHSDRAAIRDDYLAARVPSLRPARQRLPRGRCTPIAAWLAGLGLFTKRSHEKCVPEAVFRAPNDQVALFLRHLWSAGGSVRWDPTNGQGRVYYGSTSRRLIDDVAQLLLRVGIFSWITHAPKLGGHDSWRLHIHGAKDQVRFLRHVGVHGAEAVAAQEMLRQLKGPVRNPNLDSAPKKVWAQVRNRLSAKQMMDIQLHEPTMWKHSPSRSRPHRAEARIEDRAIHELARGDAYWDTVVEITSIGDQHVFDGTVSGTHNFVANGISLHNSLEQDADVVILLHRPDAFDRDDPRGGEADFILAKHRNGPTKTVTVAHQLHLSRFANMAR
# [27] = molecular target: T3, Apoptotic protease-activating factor 1 (Homo sapiens, UniProt O14727); type: functional
# T3 sequence (O14727 whole entry): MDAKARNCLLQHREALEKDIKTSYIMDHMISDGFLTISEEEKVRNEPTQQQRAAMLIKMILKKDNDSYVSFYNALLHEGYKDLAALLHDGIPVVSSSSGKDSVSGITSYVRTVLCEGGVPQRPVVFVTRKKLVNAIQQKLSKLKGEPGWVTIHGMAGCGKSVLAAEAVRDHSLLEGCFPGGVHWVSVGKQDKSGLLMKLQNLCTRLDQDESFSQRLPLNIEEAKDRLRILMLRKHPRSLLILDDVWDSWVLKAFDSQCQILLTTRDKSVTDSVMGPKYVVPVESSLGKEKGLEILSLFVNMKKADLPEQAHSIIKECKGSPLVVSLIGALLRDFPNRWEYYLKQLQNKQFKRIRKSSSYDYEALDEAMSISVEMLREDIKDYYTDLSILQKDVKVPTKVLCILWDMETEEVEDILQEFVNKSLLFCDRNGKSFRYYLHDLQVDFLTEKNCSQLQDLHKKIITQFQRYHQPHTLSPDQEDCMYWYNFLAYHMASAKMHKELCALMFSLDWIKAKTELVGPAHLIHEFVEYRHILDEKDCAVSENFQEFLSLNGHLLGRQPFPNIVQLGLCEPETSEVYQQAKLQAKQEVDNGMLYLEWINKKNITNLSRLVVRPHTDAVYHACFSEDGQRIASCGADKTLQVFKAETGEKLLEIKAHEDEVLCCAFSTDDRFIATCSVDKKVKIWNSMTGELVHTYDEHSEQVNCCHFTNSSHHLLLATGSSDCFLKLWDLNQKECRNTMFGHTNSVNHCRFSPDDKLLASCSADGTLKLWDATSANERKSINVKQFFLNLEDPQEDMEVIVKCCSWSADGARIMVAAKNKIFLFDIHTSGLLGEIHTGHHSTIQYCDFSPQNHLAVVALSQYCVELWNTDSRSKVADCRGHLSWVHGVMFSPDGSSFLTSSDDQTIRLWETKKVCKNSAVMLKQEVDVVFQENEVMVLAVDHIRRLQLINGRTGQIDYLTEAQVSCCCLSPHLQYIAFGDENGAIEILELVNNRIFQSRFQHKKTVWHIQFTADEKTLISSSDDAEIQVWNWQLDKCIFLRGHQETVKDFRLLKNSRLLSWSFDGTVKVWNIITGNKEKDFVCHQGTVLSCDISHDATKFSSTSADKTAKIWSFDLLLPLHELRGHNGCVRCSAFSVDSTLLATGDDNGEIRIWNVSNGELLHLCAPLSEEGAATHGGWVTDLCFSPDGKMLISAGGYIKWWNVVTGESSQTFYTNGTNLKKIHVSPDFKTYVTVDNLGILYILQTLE
# [28] = molecular target: Mitochondrial peptide methionine sulfoxide reductase (Bos taurus, UniProt P54149); type: functional;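 further: absorbance read-out, biochemical high-throughput dose-response screen for MsrA inhibitors, confirmatory; recombinant bovine MsrA coupled to E. coli TrxB with NADPH and selenocystamine; potency is for inhibitors of MsrA activity on DMSO substrate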
# Mitochondrial peptide methionine sulfoxide reductase, sequence (P54149 whole entry): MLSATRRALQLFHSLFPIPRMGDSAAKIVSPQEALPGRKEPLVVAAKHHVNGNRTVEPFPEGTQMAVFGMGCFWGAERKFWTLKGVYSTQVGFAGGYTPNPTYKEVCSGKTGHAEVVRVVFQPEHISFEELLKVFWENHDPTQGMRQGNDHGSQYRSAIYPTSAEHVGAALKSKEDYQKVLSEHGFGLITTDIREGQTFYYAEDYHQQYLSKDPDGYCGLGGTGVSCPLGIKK
# [29] = molecular target: T4, Protein RecA (Mycobacterium tuberculosis, UniProt P9WHJ3); assay: Fluorescence Cell-Free Homogeneous Dose Retest to Identify Inhibitors of RecA-Intein Splicing Activity. [Related pubchem assays (depositor defined):AID2097, AID2223, AID489010, AID492950]; type: functional
# T4 sequence (P9WHJ3 whole entry): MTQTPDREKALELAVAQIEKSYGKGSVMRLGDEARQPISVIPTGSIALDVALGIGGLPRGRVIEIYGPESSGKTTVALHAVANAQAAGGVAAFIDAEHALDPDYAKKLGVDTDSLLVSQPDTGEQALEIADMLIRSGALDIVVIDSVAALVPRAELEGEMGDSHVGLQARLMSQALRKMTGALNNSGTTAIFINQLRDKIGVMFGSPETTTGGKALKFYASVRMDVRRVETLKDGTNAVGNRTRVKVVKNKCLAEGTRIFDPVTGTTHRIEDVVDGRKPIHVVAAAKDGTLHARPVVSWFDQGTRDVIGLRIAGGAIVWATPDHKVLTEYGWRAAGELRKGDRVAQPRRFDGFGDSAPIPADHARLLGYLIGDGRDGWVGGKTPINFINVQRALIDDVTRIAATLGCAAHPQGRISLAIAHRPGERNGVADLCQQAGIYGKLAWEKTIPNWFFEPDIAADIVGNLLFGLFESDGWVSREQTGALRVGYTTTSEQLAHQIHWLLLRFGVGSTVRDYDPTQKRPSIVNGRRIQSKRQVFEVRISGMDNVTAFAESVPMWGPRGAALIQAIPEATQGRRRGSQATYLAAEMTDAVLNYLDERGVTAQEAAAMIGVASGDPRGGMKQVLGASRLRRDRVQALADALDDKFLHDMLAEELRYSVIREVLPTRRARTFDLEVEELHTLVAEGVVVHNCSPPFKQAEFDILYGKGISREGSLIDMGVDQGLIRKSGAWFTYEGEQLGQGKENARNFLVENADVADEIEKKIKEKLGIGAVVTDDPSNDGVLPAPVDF
# [30] = molecular target: Tyrosyl-DNA phosphodiesterase 2 (Homo sapiens, UniProt O95551); assay: human TDP2 enzyme inhibitors, dose response, biochemical, epi absorbance, IC50 (AID 743297)
# Tyrosyl-DNA phosphodiesterase 2, sequence (O95551 whole entry): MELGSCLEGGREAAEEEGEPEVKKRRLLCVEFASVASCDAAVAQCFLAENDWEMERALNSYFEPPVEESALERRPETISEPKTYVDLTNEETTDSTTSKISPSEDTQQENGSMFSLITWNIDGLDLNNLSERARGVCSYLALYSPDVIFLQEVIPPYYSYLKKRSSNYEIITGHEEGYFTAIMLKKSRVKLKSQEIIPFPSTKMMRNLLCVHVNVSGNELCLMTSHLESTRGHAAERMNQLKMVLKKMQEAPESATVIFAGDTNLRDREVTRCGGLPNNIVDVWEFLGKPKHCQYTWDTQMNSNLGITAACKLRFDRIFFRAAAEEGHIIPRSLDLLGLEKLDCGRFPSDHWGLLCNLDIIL
# NAD-dependent protein deacylase sirtuin-5, mitochondrial, sequence (Q9NXA8 whole entry): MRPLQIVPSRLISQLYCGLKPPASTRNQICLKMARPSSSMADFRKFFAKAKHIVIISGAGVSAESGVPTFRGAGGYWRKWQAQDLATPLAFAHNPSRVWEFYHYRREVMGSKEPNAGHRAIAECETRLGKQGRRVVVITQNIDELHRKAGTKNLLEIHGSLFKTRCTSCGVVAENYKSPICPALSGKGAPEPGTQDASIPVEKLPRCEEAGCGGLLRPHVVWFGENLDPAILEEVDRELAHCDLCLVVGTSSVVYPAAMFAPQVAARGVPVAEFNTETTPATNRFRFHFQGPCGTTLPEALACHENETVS
compound,measurement,setting,value
C[C@H](CO)N1C[C@H](C)[C@@H](CN(C)C(=O)C2CCCCC2)OCCCC[C@H](C)Oc2ccc(NC(=O)Nc3ccc(F)cc3)cc2C1=O,AC50,[1],> 30 µM (inactive)
COc1ccc(N(CC2CC2)C(=O)N2CCN(c3cc(Cl)ccc3C)CC2)cc1,IC50,[2],0.25 µM (active)
same,IC50,[3],11.3 µM (inactive)
same,IC50,[4],16.6 µM (inactive)
same,IC50,[5],0.0363 µM (active)
CCN(CC)CCCNC1=C(Nc2ccccc2)C(=O)c2ccccc2C1=O,AC50,[6],31 µM (active)
same,AC50,[7],65 µM (active)
CC(NC(=O)c1coc(=O)c(Br)c1)C1C2CCC3CC(C2)CC31 (stereo not given),IC50,[8],1.8 µM (active)
same,IC50,[9],8.3 µM (active)
Nc1ccccc1NC(=O)c1ccccc1,EC50,[10],13.8 µM (active)
same,EC50,[11],> 350 µM (not active)
same,AC50,[12],17.5 µM (active)
C[C@H](CO)N1C[C@H](C)[C@@H](CN(C)CC2CCCCC2)Oc2c(NC(=O)CCCCCC(=O)Nc3ccccc3N)cccc2C1=O,AC50,[13],46.8 µM (active)
same,AC50,[14],11.1 µM (active)
CCCCCCSc1cc(-c2nc3cc(C)ccn3c2NCCCC)ccc1OC,AC50,[15],45.6 µM (active)
same,AC50,[16],45.7 µM (active)
same,AC50,[17],19.8 µM (active)
same,AC50,[18],30.3 µM (active)
same,AC50,[19],7.54 µM (active)
N#Cc1c(N)nc(N)nc1Nc1ccc(Br)cc1,EC50,[20],> 67.4 µM (inactive)
C[C@@H]1CN([C@H](C)CO)S(=O)(=O)c2ccc(C#Cc3ccncc3)cc2O[C@@H]1CN(C)C(=O)Nc1ccc2c(c1)OCO2,AC50,[21],4.77 µM (active)
same,AC50,[22],29.8 µM (active)
Cc1cc(C)c(C#N)c(N2CCN(c3ccccc3)CC2)n1,AC50,[23],> 52 µM (inactive)
CS(=O)(=O)N(CC(=O)NC1CCC1)c1cc(C(F)(F)F)ccc1Cl,EC50,[24],1.39 µM
O=C1C(=O)N(CCOc2ccc(C(F)(F)F)cc2)c2ccc(OC(F)(F)F)cc21,EC50,[25],0.36 µM (active)
O=C(O)c1ccc(NC2=C(n3nnc4ccccc43)C(=O)c3ccccc3C2=O)cc1,AC50,[26],4.36 µM (active)
same,IC50,[27],7.8 µM (active)
same,IC50,[28],11.6 µM (inactive)
same,EC50,[29],3 µM (active)
same,IC50,[30],40.1 µM (inactive)
